In patent US6762200B2, “Oxa(thia)zolidine derivative and anti-inflammatory drug” (Nippon Soda Co. Ltd., priority 2000, dated 2004):
Like-named read-outs stand apart in the source and are kept apart here.

Key:
IV-cPLA(2) = biological target: T1, IV-cPLA(2) (Homo sapiens, UniProt P47712); experiment: PLA(2) activity, hydrolysis of bis-BODIPY FL C11-PC in activated U937 cells; assay type: cell-based
T1 sequence (P47712 1-749): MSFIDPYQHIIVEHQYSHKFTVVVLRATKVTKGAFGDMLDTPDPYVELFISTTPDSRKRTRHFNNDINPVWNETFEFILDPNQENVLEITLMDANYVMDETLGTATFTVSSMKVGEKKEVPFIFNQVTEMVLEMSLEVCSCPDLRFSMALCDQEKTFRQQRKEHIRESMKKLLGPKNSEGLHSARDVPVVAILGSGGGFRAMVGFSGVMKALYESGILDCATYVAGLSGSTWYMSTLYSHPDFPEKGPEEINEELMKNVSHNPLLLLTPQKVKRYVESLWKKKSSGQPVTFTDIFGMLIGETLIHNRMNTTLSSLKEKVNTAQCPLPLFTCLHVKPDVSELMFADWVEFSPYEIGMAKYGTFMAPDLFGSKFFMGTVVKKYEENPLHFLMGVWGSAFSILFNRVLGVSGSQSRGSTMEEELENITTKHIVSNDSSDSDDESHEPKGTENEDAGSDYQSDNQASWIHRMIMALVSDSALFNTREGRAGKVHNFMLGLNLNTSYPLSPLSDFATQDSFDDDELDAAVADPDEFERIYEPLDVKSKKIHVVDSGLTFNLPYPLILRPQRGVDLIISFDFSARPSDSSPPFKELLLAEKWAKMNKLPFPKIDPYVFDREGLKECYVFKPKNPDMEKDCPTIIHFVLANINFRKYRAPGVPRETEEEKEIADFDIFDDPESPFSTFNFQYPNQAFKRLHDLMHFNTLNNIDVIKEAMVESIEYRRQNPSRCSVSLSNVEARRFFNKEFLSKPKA
Procedure: The PLA(2) activity was measured by quantitatively analyzing the fluorescent product of hydrolysis from 1,2-bis-(4,4-difluoro-5,7-dimethyl-4-bora-3a,4a-diaza-s-indecene-3-undecanoyl)-sn-glycero-3-phosphocholine (hereinafter referred to bis-BODIPY®FL C11—PC, Molecular Probes, Inc., B-7701) using activated U937 cells (human monoblastic lymphoma cell line) by inflammatory stimulus (Meshulam, T. et al., The journal of Biological Chemistry 267 (30): 21465-21470 (1992); and Solito, E. et al., British Journal of Pharmacology 124: 1675-1683 (1998).). The substrate bis-BODIPY®FL C11—PC is incorporated into cellular membranes, the proximity of the BODIPY FL fluorophores on adjacent phospholipid acyl chains causes fluorescence self-quenching. Separation of the fluorophores upon hydrolytic cleavage of one of the acyl chains by PLA(1) or the PLA(2) results in increased fluorescence. In the activated U937 by inflammatory stimulus, it is shown that this substrate should be cleaved enzymatically by IV-cPLA(2) from the feature of its behaviors including sensitivity profiles against the inhibitors.
The human cell line U937 was purchased from Dai-Nippon Pharmaceuticals Co., Ltd. The cells were maintained by transferring every 3-4 days into RPMI 1640 medium (Sigma Chemical Co., R6504) supplemented with heat-inactivated 10% fetal bovine serum (Fetal Bovine Serum, Sigma Chemical Co., F 4135) in a 5% CO2 humidified atmosphere at 37° C. The cells were transferred into the culture medium described above, containing 1.2% (v/v) dimethylsulfoxide (hereinafter referred to as […], Nacalai tesque Co., Ltd., D 134-45), and pre-cultured for 96 to 120 hours so as to differentiate into the macrophage-like cells to be provided for the assay. The macrophage-like cells were collected and washed by centrifugation with the Assay medium (Dulbecco's phosphate buffered saline (hereinafter referred to as PBS)-2.2 mM glucose-2.5 μm albumin). Then, Phorbol 12-Myristate 13-Acetate (hereinafter referred to as TPA, Sigma Chemical Co., P 8139) was added to the Assay medium to be 1×10^−8M as the final concentration. Then, the macrophage-like cells were further cultured for an hour to be activated (Rzigalinski, B. A. & Rosenthal, M. D., Biochimica et Biophysica Acta 1223: 219-225 (1994); and Gonchar, M. V. et al., Biochemical and Biophysical Research Communication, 249: 829-832 (1998).).
For preparing substrate liposome suspension, bis-BODIPY®FL C11—PC was combined with phosphatidylcholine (Sigma Chemical Co., P 7769) at 1:9 molar ratio in chloroform, and dried under nitrogen flow. The dried mixture was suspended with the Assay medium at 100 μg/mL, voltexed and sonicated for an hour on ice under dark condition.
The test compound was dissolved with DMSO at 30 mM, and the solution diluted with either DMSO or the Assay medium before addition into the reaction mixture. The DMSO concentration in the reaction mixture was controlled so as to be no more than 0.1%. The 30-fold concentration of test compound solution was put into each well of MICRPTEST™ Tissue Culture Plate, 96 Well (Falcon, 3072) at a rate of 2.5 μL/well. To the respective well was added 25 μL/well of the activated U937 cell suspension ([…]), and the cells were pre-cultured for 120 min. at 37° C. in a 5% CO2 atmosphere incubator. 47.5 μL/well of the substrate liposome suspension with 1.5×10^−6M A23187 (Sigma Chemical Co., C 7522) was added into each well to prepare 75 μL/well of the total reaction mixture, followed by culture for 30 min. under the same conditions with shielding against light. 100 μL/well of 0.1% GEDTA (Dojindo Laboratories Co. Ltd., 348-01311) methanol solution was added into each well and mixed to stop the reaction. […]

[1] = system: picryl chloride-induced contact dermatitis (ear swelling); experiment: Mouse delayed contact dermatitis induced by picryl chloride; conditions: for Ear swelling after 24 hours Left (Not applied) (Mean ± S.E., mm): topical to right ear, non-treated left ear; for Ear swelling after 24 hours Right (Applied) (Mean ± S.E., mm): topical
Procedure: This pharmacological test was carried out referring to the method of Asherson, G. L. & Ptak, W. (Immunology, 15: 405-416 (1968).) and the method of Jun Hiroi (Folia Pharmacology of Japan, 86: 233-239 (1985).). More specifically, hairs on the abdomen of an ICR-strain male mouse were removed using an electric clip and an electric shaver. Then, 0.1 mL of 7% ether solution of picryl chloride (Tokyo Kasei Kogyo Co., Ltd., C 0307) was applied onto the abdomen for sensitization. On the sixth day after the sensitization, 20 μL/ear of 1% olive oil solution of picryl chloride was topically applied to the anterior and posterior surfaces of both ears of the mouse to induce contact dermatitis (first induction). Before and 24 hours after the induction, the thicknesses of the particular parts on the both ears were measured three times, respectively, using a digimatic micrometer (Mitsutoyo Co., Ltd.) to work out the average values. Ear edema of the both ears was respectively determined by subtracting the average thickness of the each ear before the induction from that on 24 hours after the induction, so that a grouping was carried out to separate the appropriate individuals. On the fourth day after the first induction, the hairs on the abdomen were removed again, and 0.1 mL of 7% ethanol solution of picryl chloride was applied thereto for additional sensitization. The contact dermatitis for evaluating activity was induced by re-applying 20 μL/ear of 1% olive oil solution of picryl chloride to the anterior and posterior surfaces of both ears (second induction) on the seventh day after the additional sensitization (on the […] day after the first sensitization). The activity of each compound of the present invention was evaluated as the inhibition on the contact dermatitis as compared with that of the vehicle applied control. That is, the thicknesses of the particular portions of the both ears were measured respectively three times with a digimatic micrometer to work out the mean values before, 24 hours and 48 hours after the second induction. Ear swelling was determined by subtracting the ear thickness before the second induction from that on 24 hours and 48 hours after the second induction, respectively. Topical application activity was evaluated by applying 25 μL of the acetone solution of the compound of the present invention similarly to the anterior and posterior surfaces of the right ear one hour before and 16 hours after the second induction. As the positive control, 0.02 mg/20 μL of acetone solution of Dexamethasone (hereinafter referred to as DEX, Wako Pure Chemical Industries Ltd., 047-18863) was applied similarly as for the compound of the present invention. With respect to the inhibitory activity in topical application tests, the topical activity was determined by the inhibition of the applied right ear edema, and the translocation and distribution property was determined by the activity onto the swelling of non-treated left ear. Oral administration activity was evaluated by administrating 0.5% methyl cellulose suspension of the compound of the present invention forcibly and perorally to the mouse an hour before and 16 hours after the second induction. As the positive control, 20 mg/kg of Prednisolone (Sigma Chemical Co., P 6004) suspension was administrated similarly as for the compounds of the present invention.

TPA-induced ear edema = assay type: in vivo, ICR-strain male mouse; conditions: topical, 6 hours after TPA
Procedure: This test was carried out referring to the method of Carlson, R. P. et al. (Agents and Actions, 17(2): 197-204 (1985).) and the method of Chang, J. (European Journal of Pharmacology, 142: 197-205 (1987).). […] 6 hours later, the thickness of each ear at the particular part was respectively measured three times using a digimatic micrometer to calculate the mean value. Ear edema was determined by subtracting the mean thickness of the left ear as without treatment from that of the right ear as TPA-applied. […] As the positive control, 100 mg/kg of Hydrocortisone (Sigma Chemical Co., H 4001) suspension was applied to the mouse similarly as for the compound of the present invention.

[2] = system: acetic acid-induced writhes; experiment: Acetic acid writhing; assay type: in vivo, ICR-strain male mouse; conditions: i.p., 10 to 20 min after acetic acid
Procedure: This test was carried out referring to the method of Inoue, K., Motonaga, A. & Nishimura, T (Arzneimittel Forshung/Drug Research, 41 (1): 235-239 (1991)). More specifically, 7.5 mL/kg of 0.9% acetic acid solution was injected intraperitoneally into an ICR-strain male mouse (5 to 7 weeks old), and the induced writhes (characteristic behaviors of convulsive contracting the abdomen, twisting the body and/or extending the legs) were observed. Number of writhes of each mouse was measured during 10 to 20 min. period after acetic acid administration. The compound of the present invention was homogeneously suspended in 2% Tween 80/saline for injection use, and was injected intraperitoneally 30 min. before the induction by the acetic acid injection. Alternatively, the compound of the present invention was homogeneously suspended in 2% Tween 80/distilled water, and was administrated orally two hours before the induction by the acetic acid injection. The analgesic activity of the compounds according to the present invention was evaluated on the basis of the degree of inhibiting the number writhes by the administration of the compounds. As the positive control, indomethacin or aspirin was administrated. The analgesic activity of the compounds according to the present invention measured in this test were exemplified in Table 7.

## CC1C(c2ccc(Cl)cc2)SC(=O)N1C(=S)NC1CCCCC1 (stereo not drawn) [Compound 2-194]
IV-cPLA(2); 1 μM
  Inhibition (%): 78%
[1]; 1.5 mg/25 μL/ear × 2
  Ear swelling after 24 hours Left (Not applied) (Mean ± S.E., mm): 0.226 ± 0.016 mm
  Ear swelling after 24 hours Right (Applied) (Mean ± S.E., mm): 0.223 ± 0.010 mm

## CC1C(c2ccc(Cl)cc2)SC(=O)N1C(=O)NS(=O)(=O)c1ccccc1Cl (stereo not drawn) [Compound 2-36]
IV-cPLA(2); 0.1 μM
  Inhibition (%): 61%
TPA-induced ear edema; 0.3 mg/20 μL/ear × 2
  Ear Edema Inhibition (%): 41%

## CC(=O)Oc1ccccc1C(=O)O [Aspirin, aspirin, reference compound]
[2]; 30 mg/kg
  Number of writhes (Mean ± S.E.): 9.5 ± 2.0

## CCOC(=O)C(C)NC(=O)N1C(=O)OC(c2ccc(C)cc2)C1C (stereo not drawn) [Compound 2-54]
IV-cPLA(2); 0.1 μM
  Inhibition (%): 95%
TPA-induced ear edema; 0.3 mg/20 μL/ear × 2
  Ear Edema Inhibition (%): 64%

## Cc1ccc(C2OC(=O)N(C(=O)NS(=O)(=O)c3ccccc3C)C2C)cc1 (stereo not drawn) [Compound 2-60]
IV-cPLA(2); 0.1 μM
  Inhibition (%): 100%
TPA-induced ear edema; 1 mg/40 μL/ear × 2
  Ear Edema Inhibition (%): 53%

## Cc1ccc(C2OC(=O)N(C(=O)NC3CCCCO3)C2C)cc1 (stereo not drawn) [Compound 2-170]
IV-cPLA(2); 0.1 μM
  Inhibition (%): 82%
TPA-induced ear edema; 0.3 mg/20 μL/ear × 2
  Ear Edema Inhibition (%): 57%

## CC1C(c2ccc3c(c2)CCCC3)OC(=O)N1C(=O)NC1CCCCO1 (stereo not drawn) [Compound 2-125]
IV-cPLA(2); 0.1 μM
  Inhibition (%): 62%
TPA-induced ear edema; 1 mg/40 μL/ear × 2
  Ear Edema Inhibition (%): 62%

## C[C@@H]1[C@@H](c2ccc(Cl)cc2)SC(=O)N1C(=O)NC1CCCCO1 (single isomer, unassigned) [Compound 2-246]
IV-cPLA(2); 0.01 μM
  Inhibition (%): 78%
TPA-induced ear edema; 1 mg/40 μL/ear × 2
  Ear Edema Inhibition (%): 74%

## COc1ccc2c(c1)c(CC(=O)O)c(C)n2C(=O)c1ccc(Cl)cc1 [Indomethacin, indomethacin, reference compound]
[2]; 3 mg/kg
  Number of writhes (Mean ± S.E.): 13.8 ± 3.0
[2]; 10 mg/kg
  Number of writhes (Mean ± S.E.): 4.8 ± 0.9

## C[C@@H]1C[C@H]2[C@@H]3CCC4=CC(=O)C=C[C@]4(C)[C@@]3(F)[C@@H](O)C[C@]2(C)[C@@]1(O)C(=O)CO [DEX, Dexamethasone, reference compound]
[1]; 0.02 mg/ear × 2
  Change in body weight 48 hours after induction (Mean ± S.E.): -1.42 ± 0.20 g
  Change in body weight 48 hours after induction (Mean ± S.E.) (%): −4.30 ± 0.59%
[1]; 48 hours after the second induction
  General condition and body weight of mice: generally bad symptoms and reducing their body weight significantly
[1]; dose 0.02 mg/ear × 2
  Ear swelling after 24 hours Left (Not applied) (Mean ± S.E., mm): −0.005 ± 0.033 mm
  Ear swelling after 24 hours Right (Applied) (Mean ± S.E., mm): 0.057 ± 0.009 mm

## CC1C(c2ccc(C(=O)OC(F)(F)F)cc2)SC(=O)N1C(=O)NC1CCCCO1 (stereo not drawn) [Compound 2-240]
[1]; 1.5 mg/25 μL/ear × 2
  Ear swelling after 24 hours Left (Not applied) (Mean ± S.E., mm): 0.238 ± 0.024 mm
  Ear swelling after 24 hours Right (Applied) (Mean ± S.E., mm): 0.246 ± 0.009 mm

## CC(=O)N=C1SC(c2ccccc2)C(C)N1C(=O)NC1CCCCC1 (stereo not drawn) [Compound 1-43]
[1]; 1.5 mg/25 μL/ear × 2
  Ear swelling after 24 hours Left (Not applied) (Mean ± S.E., mm): 0.201 ± 0.008 mm
  Ear swelling after 24 hours Right (Applied) (Mean ± S.E., mm): 0.196 ± 0.029 mm
